Patent publication US20240299303A1, “NANOSTRUCTURE OR MICROSTRUCTURE AND METHOD FOR PRODUCING SAME” (The University of Tokyo, priority 2021, published 2024)

Experiments:
Format in all cases: physicochemical
[1] = Introduction of molecules into crosslinked body of porous microstructural body (UV-visible, supernatant); conditions: adsorption from aqueous dispersion; Example 10
Method: A low-molecular weight compound was added, and caused to adsorb, to the aqueous dispersion of the porous γ-PPG4k-Plate crosslinked body, and then the porous γ-PPG4k-Plate crosslinked body was sedimented by centrifugation. The concentration of the low-molecular weight compound present in the supernatant liquid obtained at that time was determined by a UV-visible spectral method. Thus, the amount of the low-molecular weight compound adsorbing to the porous γ-PPG4k-Plate crosslinked body was determined.

[2] = Introduction of molecules into porous nanosheet crosslinked body (UV-visible, supernatant); conditions: adsorption from aqueous dispersion; Example 9
Method: A low-molecular weight compound was added, and caused to adsorb, to the aqueous dispersion of the porous γ-plu108-NS crosslinked body, and then the porous γ-plu108-NS crosslinked body was sedimented by centrifugation. The concentration of the low-molecular weight compound present in the supernatant liquid obtained at that time was determined by a UV-visible spectral method. Thus, the amount of the low-molecular weight compound adsorbing to the porous γ-plu108-NS crosslinked body was determined.

[3] = Introduction of rhodamine B into uncrosslinked nanosheets (fluorescence microscope); conditions: rhodamine B 1,000 μg/mL aqueous solution, shaken room temperature 24 hours
Method: 100 Microliters of an aqueous solution (1,000 μg/mL) of rhodamine B was added to 90 mL of the uncrosslinked nanosheet dispersion (sample IT-142) obtained in Comparative Example 1, and the mixture was shaken at room temperature for 24 hours. […] The results are shown in FIG. 11(A) and FIG. 11(B), respectively. The crystal structures of nanosheets were able to be observed with the phase-contrast microscope.

[4] = Introduction of rhodamine B into crosslinked nanosheets (fluorescence microscope); conditions: rhodamine B 100 μg/mL aqueous solution, shaken room temperature 24 hours, diluted fivefold
Method: 900 Microliters of an aqueous solution (100 μg/mL) of rhodamine B was added to 50 mg of the nanosheet dispersion-1 (sample IT-162) obtained in Example 1, and the mixture was shaken at room temperature for 24 hours. […] The results are shown in FIG. 10(A) and FIG. 10(B), respectively. The crystal structures of nanosheets were able to be observed with the phase-contrast microscope.

[5] = Introduction of compounds into nanosheets, absorbance of supernatant after centrifugation; conditions: for introduction amount relative to the weight of the nanosheets: Examples 4-8; for introduction amount relative to the weight of the nanosheets / Weight of introduced compound/weight of nanosheets: crosslinked β-cyclodextrin nanosheets; for Weight of introduced compound/weight of nanosheets: Table 1; for Concentration of introduced compound before introduction: in nanosheet dispersion, defined in consideration of dilution with moisture in the dispersion; for Concentration of introduced compound before introduction / Concentration of introduced compound after introduction: nanosheets 43 mg/mL (Examples 4-6) or 17 mg/mL (Examples 7-8); for amount of compound introduced into the nanosheets (reduction in concentration before and after introduction): nanosheets 43 mg/mL (Examples 4-6) or 17 mg/mL (Example 8); for Concentration of introduced compound after introduction: supernatant after shaking at room temperature 48 hours and centrifugation, absorbance
Method: (§1) 700 Microliters of an aqueous solution (300 μg/mL) of 5-fluorouracil was added to 500 mg of the nanosheet dispersion-1 obtained in Example 1, and the mixture was shaken at room temperature for 48 hours. The nanosheet dispersion having introduced thereinto 5-fluorouracil was centrifuged (at 12,000 rpm for 10 minutes), and the supernatant liquid was collected.
The introduction amount of 5-fluorouracil was determined by the same process as that of Example 4 except that a concentration-absorbance calibration curve was produced at a predetermined wavelength (λ=270 nm).
as §1, with “(100” for “(300”, “hydrocortisone” for “5-fluorouracil”
The introduction amount of hydrocortisone was determined by the same process as that of Example 4 except that a concentration-absorbance calibration curve was produced at a predetermined wavelength (λ250 nm).
as §1, with “500” for “700”, “(30” for “(300”, “betamethasone” for “5-fluorouracil”, “100” for “500”
The introduction amount of betamethasone was determined by the same process as that of Example 4 except that a concentration-absorbance calibration curve was produced at a predetermined wavelength (λ=250 nm).
as §1, with “500” for “700”, “(30” for “(300”, “menadione” for “5-fluorouracil”, “100” for “500”
The introduction amount of menadione was determined by the same process as that of Example 4 except that a concentration-absorbance calibration curve was produced at a predetermined wavelength (λ=250 nm).

Row | SMILES | introduction into the porous γ-PPG4k-Plate crosslinked body [1] | introduction amount relative to the weight of the nanosheets [5] [wt %] | Weight of introduced compound/weight of nanosheets [5] [%] | Concentration of introduced compound before introduction [5] [ng/mL] | amount of compound introduced into the nanosheets (reduction in concentration before and after introduction) [5] [µg/mL] | Concentration of introduced compound after introduction [5] [ng/mL] | also measured
1 | CCCCC/C=C\C/C=C\CCCCCCCC(=O)O [linoleic acid] |  |  |  |  |  |  | ratio of the weight of the low-molecular weight compound to the total sum of the weights of the compound and the porous γ-PPG4k-Plate crosslinked body [1]: 0.9 wt %; ratio of the weight of the low-molecular weight compound to the total sum of the weights of the compound and the porous γ-plu108-NS crosslinked body [2]: 5.3 wt %
2 | CCN[C@H]1C[C@H](C)S(=O)(=O)c2sc(S(N)(=O)=O)cc21 [dorzolamide] | not introduced |  |  |  |  |  | 
3 | O=c1ccc2ccccc2o1 [coumarin] |  |  |  |  |  |  | ratio of the weight of the low-molecular weight compound to the total sum of the weights of the compound and the porous γ-PPG4k-Plate crosslinked body [1]: 0.6 wt %; ratio of the weight of the low-molecular weight compound to the total sum of the weights of the compound and the porous γ-plu108-NS crosslinked body [2]: 0.5 wt %
4 | O=C(O)CCCC[C@@H]1SC[C@@H]2NC(=O)N[C@@H]21 [biotin] | not introduced |  |  |  |  |  | 
5 | C[C@]12CCC(=O)C=C1CC[C@@H]1[C@@H]2[C@@H](O)C[C@@]2(C)[C@H]1CC[C@]2(O)C(=O)CO [Hydrocortisone, hydrocortisone] |  | 0.08 | 0.08 | 61000 | 35 | 26000 | 
6 | O=c1[nH]cc(F)c(=O)[nH]1 [5-Fluorouracil, 5-fluorouracil] |  | 0.10 | 0.10 | 183000 | 45 | 138000 | 

More lines, main results first:

Row | introduction into the porous γ-PPG4k-Plate crosslinked body [1] | introduction amount relative to the weight of the nanosheets [5] [wt %] | Weight of introduced compound/weight of nanosheets [5] [%] | Concentration of introduced compound before introduction [5] [ng/mL] | amount of compound introduced into the nanosheets (reduction in concentration before and after introduction) [5] [µg/mL] | Concentration of introduced compound after introduction [5] [ng/mL] | SMILES | also measured
7 | not introduced |  |  |  |  |  | O=C(O)c1cccnc1 [nicotinic acid] | 
8 | not introduced |  |  |  |  |  | CCN(CC)c1ccc2c(-c3ccccc3C(=O)O)c3ccc(=[N+](CC)CC)cc-3oc2c1.[Cl-] [rhodamine B] | fluorescent coloring in the crystal structures (rhodamine B introduction) [3]: almost no fluorescent coloring was observed; fluorescent coloring in the crystal structures (rhodamine B introduction) [4]: fluorescent coloring was observed
9 |  | 0.09 | 0.09 | 25000 | 15 | 10000 | CC1=CC(=O)c2ccccc2C1=O [Menadione, menadione] | 
